Literature values in Sander's compilation of Henry's law constants (doi:10.1016/0045-6535(88)90142-7).

Assay: Henry solubility constant Hcp at 298.15 K (mol/(m3 Pa))
Conditions: reference: Ryan et al. (1988); cited value

First: Clc1ccc(C(c2ccc(Cl)cc2)C(Cl)(Cl)Cl)cc1 [1,1,1-trichloro-2,2-bis-(4-chlorophenyl)-ethane]
Second: Clc1ccc(C(c2ccc(Cl)cc2)C(Cl)Cl)cc1 [1,1-dichloro-2,2-bis-(4-chlorophenyl)-ethane]
The “Henry solubility constant Hcp” value of the first is higher: 0.2 for the first, 0.00081 for the second.

Compared with CC(Cl)(Cl)Cl [1,1,1-trichloroethane], ClC(Cl)(Cl)Cl [tetrachloromethane] is higher in “Henry solubility constant Hcp” value: 0.00031 for the first, 0.00045 for the second.

Going from ClC(Cl)C(Cl)Cl [1,1,2,2-tetrachloroethane] to ClCC(Cl)Cl [1,1,2-trichloroethane], the “Henry solubility constant Hcp” value falls from 0.025 to 0.0013.

Going from ClC(Cl)=C(c1ccc(Cl)cc1)c1ccc(Cl)cc1 [1,1-dichloro-2,2-bis-(4-chlorophenyl)-ethene] to Clc1ccc(Cl)cc1 [1,4-dichlorobenzene], the “Henry solubility constant Hcp” value falls from 0.45 to 0.0041.

Compared with C=C(Cl)Cl [1,1-dichloroethene], ClC=C(Cl)Cl [trichloroethene] is lower in “Henry solubility constant Hcp” value: 0.0022 for the first, 0.0011 for the second.

Compared with CC(Cl)CCl (stereo not drawn) [1,2-dichloropropane], CC(CCl)OC(C)CCl (stereo not drawn) [bis-(2-chloroisopropyl) ether] is higher in “Henry solubility constant Hcp” value: 0.0034 for the first, 0.0086 for the second.

First: Clc1cccc(Cl)c1 [1,3-dichlorobenzene]
Second: Clc1ccccc1 [chlorobenzene]
The “Henry solubility constant Hcp” value of the first is higher: 0.0037 for the first, 0.0027 for the second.

First: ClC=CCCl [1,3-dichloropropene]
Second: ClCCl [dichloromethane]
The “Henry solubility constant Hcp” value of the first is higher: 0.0081 for the first, 0.0047 for the second.

Going from ClCCOCCCl [1,5-dichloro-3-oxapentane] to ClCCOCOCCCl [bis-(2-chloroethoxy)-methane], the “Henry solubility constant Hcp” value rises from 8.6 to 37.

Going from Cc1ccc(O)c(C)c1 [1-hydroxy-2,4-dimethylbenzene] to Cc1cc(O)ccc1Cl [4-chloro-3-methylphenol], the “Henry solubility constant Hcp” value rises from 0.54 to 4.

Going from c1ccc2c(c1)Cc1ccccc1-2 [2,3-benzindene] to c1ccc2ccccc2c1 [naphthalene], the “Henry solubility constant Hcp” value falls from 0.084 to 0.02.

First: Oc1ccc(Cl)cc1Cl [2,4-dichlorophenol]
Second: Oc1ccccc1Cl [2-hydroxychlorobenzene]
The “Henry solubility constant Hcp” value of the first is lower: 1.8 for the first, 2.1 for the second.

Going from O=[N+]([O-])c1ccc(O)c([N+](=O)[O-])c1 [2,4-dinitrophenol] to O=[N+]([O-])c1ccccc1O [2-nitrophenol], the “Henry solubility constant Hcp” value falls from 15000 to 1.3.

First: Clc1ccc2ccccc2c1 [2-chloronaphthalene]
Second: c1ccc2cc3ccccc3cc2c1 [anthracene]
The “Henry solubility constant Hcp” value of the first is lower: 0.031 for the first, 0.037 for the second.

Compared with C=CC#N [2-propenenitrile], C=CCl [chloroethene] is lower in “Henry solubility constant Hcp” value: 0.11 for the first, 0.00065 for the second.

First: O=[N+]([O-])c1ccc(O)cc1 [4-nitrophenol]
Second: O=[N+]([O-])c1ccccc1 [nitrobenzene]
The “Henry solubility constant Hcp” value of the first is higher: 1.6 for the first, 0.75 for the second.

Going from c1cc2c3c(cccc3c1)CC2 [acenaphthene] to C1=Cc2cccc3cccc1c23 [acenaphthylene], the “Henry solubility constant Hcp” value rises from 0.04 to 0.084.

Going from ClC1=C(Cl)[C@]2(Cl)[C@H]3[C@H]([C@@H]4C=C[C@H]3C4)[C@@]1(Cl)C2(Cl)Cl [aldrin] to ClC1=C(Cl)C2(Cl)C3C(Cl)C=CC3C1(Cl)C2(Cl)Cl (stereo not drawn) [heptachlor], the “Henry solubility constant Hcp” value falls from 0.82 to 0.0065.

First: c1ccccc1 [benzene]
Second: Cc1ccccc1 [methylbenzene]
The “Henry solubility constant Hcp” value of the first is higher: 0.0018 for the first, 0.0014 for the second.

Going from c1ccc2c(c1)cc1ccc3cccc4ccc2c1c34 [benzo[a]pyrene] to c1ccc2c(c1)ccc1c3ccccc3ccc21 [chrysene], the “Henry solubility constant Hcp” value rises from 0.00082 to 0.0046.

Going from c1ccc2c(c1)-c1cccc3cccc-2c13 [benzo[jk]fluorene] to c1ccc2c(c1)ccc1ccccc12 [phenanthrene], the “Henry solubility constant Hcp” value falls from 1 to 0.25.

CCCCC(CC)COC(=O)c1ccccc1C(=O)OCC(CC)CCCC (stereo not drawn) [bis(2-ethylhexyl)-phthalate] and CCCCOC(=O)c1ccccc1C(=O)OCCCC [dibutyl phthalate] are the same in “Henry solubility constant Hcp” value: 34 for the first, 34 for the second.

Compared with ClCOCCl [bis-(chloromethyl) ether], CCCl [chloroethane] is lower in “Henry solubility constant Hcp” value: 0.0047 for the first, 0.00066 for the second.

Compared with CCBr [bromoethane], CCc1ccccc1 [ethylbenzene] is higher in “Henry solubility constant Hcp” value: 9.2e-05 for the first, 0.0016 for the second.

First: CCCCOC(=O)c1ccccc1C(=O)OCc1ccccc1 [butyl benzyl phthalate]
Second: CCCCCCCCOC(=O)c1ccccc1C(=O)OCCCCCCCC [dioctyl phthalate]
The “Henry solubility constant Hcp” value of the first is lower: 9.6 for the first, 34 for the second.

Going from ClC1=C(Cl)[C@]2(Cl)C3C(Cl)C(Cl)CC3[C@@]1(Cl)C2(Cl)Cl (stereo partly drawn) [chlordane] to ClC1=C(Cl)C2(Cl)C3C4OC4C(Cl)C3C1(Cl)C2(Cl)Cl (stereo not drawn) [heptachlorepoxide], the “Henry solubility constant Hcp” value rises from 0.1 to 13.

Going from FC(F)(Cl)Cl [dichlorodifluoromethane] to ClC(Cl)(Cl)C(Cl)(Cl)Cl [hexachloroethane], the “Henry solubility constant Hcp” value rises from 6.4e-06 to 0.00098.

Going from ClC1=C(Cl)[C@]2(Cl)[C@@H]3[C@@H]4C[C@@H]([C@H]5O[C@@H]45)[C@@H]3[C@@]1(Cl)C2(Cl)Cl [dieldrin] to ClC1=C(Cl)[C@]2(Cl)[C@@H]3[C@H]4C[C@H]([C@@H]5O[C@H]45)[C@@H]3[C@@]1(Cl)C2(Cl)Cl [endrin], the “Henry solubility constant Hcp” value rises from 1.3 to 24.

Going from COC(=O)c1ccccc1C(=O)OC [dimethyl phthalate] to ClC(Cl)=C(Cl)Cl [tetrachloroethene], the “Henry solubility constant Hcp” value falls from 50 to 0.00063.

Compared with ClC(Cl)=C(Cl)C(Cl)=C(Cl)Cl [hexachlorobutadiene], ClC1=C(Cl)C(Cl)(Cl)C(Cl)=C1Cl [hexachlorocyclopentadiene] is lower in “Henry solubility constant Hcp” value: 0.00094 for the first, 0.00027 for the second.

Compared with C=CC=O [propenal], BrC(Br)Br [tribromomethane] is lower in “Henry solubility constant Hcp” value: 0.14 for the first, 0.017 for the second.

In the case of ClC1C(Cl)C(Cl)C(Cl)C(Cl)C1Cl (stereo not drawn) [β-1,2,3,4,5,6-hexachlorocyclohexane], the “Henry solubility constant Hcp” value is listed as 0.67.
